Assay results reported in patent publication US20160264925A1, “Reagents for Lysis of Bacterial Cells” (Roche Diagnostics Operations, Inc., priority 2009, published 2016).

Key:
[1] = test system: Staphylococcus carnosus BMTU 7329; assay: Lysis of microbial cells in suspension, microscopic assessment (SYTO 9 staining): Gram-positive; format: cell-based; details: for lysis of Gram-positive cell walls, summary in words: reagent and concentration as in Tables 1 and 2 (Example 4)
Protocol: (§1) Cell suspensions containing between about 10^7 and about 10^8 cells/ml were prepared.
(§2) The LIVE/DEAD® BacLight Bacterial Viability Kits supplied by Invitrogen utilize mixtures of the SYTO® 9 green-fluorescent nucleic acid stain (Invitrogen) and the red-fluorescent nucleic acid stain, propidium iodide. These stains differ both in their spectral characteristics and in their ability to penetrate healthy bacterial cells. When used alone, the SYTO® 9 stain generally labels all bacteria in a population—those with intact membranes and those with damaged membranes. In contrast, propidium iodide penetrates only bacteria with damaged membranes, causing a reduction in the SYTO® 9 stain fluorescence when both dyes are present.
(§3) Each mixture was incubated for 15 min at 56° C.
(§4) For the lysis experiments, all possible combinations of lysis buffers L1.1 to L11.1 with cell suspensions (A), (B), and (C) were examined.
(§5) An incubated cell suspension with bacteria was scored as a “positive” lysate if in the incubated mixture SYTO® 9 stainable morphological structures corresponding to the respective bacterial cells were not detectable. Otherwise, when SYTO® 9 stainable morphological structures were still present, the incubated cell suspension was scored as “negative”. In an analogous way, a cell suspension with yeast cells was scored, however based on Calcofluor™ White M2R staining.
(§6) In each experiment a direct comparison was made using the fluorescent label on an untreated but similarly diluted cell suspension as a reference. In order to exclude any influence of a compound in the lysis reagents on fluorescence, any presence or absence of morphological structures corresponding to the respective microbial cells was verified using light microscopy.

[2] = test system: Escherichia coli BMTU 3294; assay: Lysis of microbial cells in suspension, microscopic assessment (SYTO 9 staining): Gram-negative; format: cell-based; details: for lysis of Gram-negative cell walls, summary in words: reagent and concentration as in Tables 1 and 2 (Example 4)
Protocol: as §1, §2, §3, §4, §5, §6

[3] = about 2.25 M in the mixture with the bacterial suspension

Compound	destruction of Gram-positive cell walls ([1]; 247.5 mM (or lower))	destruction of Gram-negative cell walls ([2]; 247.5 mM (or lower))	destruction of Gram-positive cell walls ([1]; 375 mM in the mixture)	destruction of Gram-positive cell walls [1, 3]	lysis of Gram-positive cell walls, summary in words [1]	destruction of Gram-negative cell walls ([2]; 375 mM in the mixture)	destruction of Gram-negative cell walls [2, 3]	lysis of Gram-negative cell walls, summary in words [2]	other results
Cc1ccc(S(=O)(=O)[O-])cc1.Cc1ccc(S(=O)(=O)[O-])cc1.Cn1cc[n+](CCCC[n+]2ccn(C)c2)c1 [MITS, 1-methyl-1-[4-(3-methyl-3H-imidazol-1-ium)-but-1-yl]-3H-imidazolium-di(toluylsulfate)]	neither Gram-negative nor Gram-positive cell walls were destroyed	neither Gram-negative nor Gram-positive cell walls were destroyed							destruction of Gram-positive cell walls ([1]; 247.5 mM increased by about 50% or more): destruction of Gram-positive cell walls
1-butyl-3-methyl-imidazolium-octylsulfate	falls short of destroying bacterial cell walls	falls short of destroying bacterial cell walls							destruction of Gram-positive cell walls ([1]; any concentration tested): no concentration was found; destruction of Gram-negative cell walls ([2]; higher than 247.5 mM and up to 375 mM): capable of destroying the cell walls of Gram-negative bacteria
1-butyl-3-methyl-imidazolium-thiocyanate [BMIM-SCN]			falls short of destroying bacterial cell walls	destroyed	destroy the cell walls of both Gram-positive and Gram-negative cells	falls short of destroying bacterial cell walls	destroyed	destroy the cell walls of both Gram-positive and Gram-negative cells	destruction of Gram-negative cell walls ([2]; about 562.5 mM in the mixture): lysed
1-butyl-3-methyl-imidazolium-2(2-methoxyethoxy)ethylsulfate [ECOENG™41M]					destroy the cell walls of both Gram-positive and Gram-negative cells			destroy the cell walls of both Gram-positive and Gram-negative cells	concentration required to destroy Gram-positive cell walls, relative to BMIM-SCN (about 2.25 M in the mixture) ([1]; lysis reagent L2.1): a quarter of this concentration; concentration required to destroy Gram-negative cell walls together with Gram-positive, relative to BMIM-SCN (about 2.25 M in the mixture) ([2]; lysis reagent L2.1): a quarter of this concentration
N#CS.N=C(N)N [GuaSCN, Guanidine thiocyanate, reference compound]			ineffective	destroyed		ineffective	destroyed		
